# Data taken from PubChem BioAssay AID248 (DTP/NCI, 2004).
# Values joined by “and” are separate entries in the source; they are usually repeats but may differ in a detail not shown here. Identical values can stand only once. Inconclusive results and toxic doses are left out.
# Test system: L1210 leukemia ip in BDF1 mice, survival T/C
# Assay: NCI In Vivo Anticancer Drug Screen. Data for tumor model L1210 Leukemia (intraperitoneal) in B6D2F1 (BDF1) mice
# Settings: higher = longer survival
# Procedure, shortened: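 Transplanted-tumor mice were given test agent; controls received vehicle only. Survival readings from the two groups were divided (treated over control).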
# [1] = endpoint: mean survival time, dose: 100.0 mg/kg/injection, schedule: Q04DX003 (ip), vehicle: saline
# [2] = endpoint: mean survival time, dose: 100.0 mg/kg/injection, schedule: Q04DX003 (ip), vehicle: Klucel (hydroxypropylcellulose) (HPC)
# [3] = endpoint: mean survival time, dose: 200.0 mg/kg/injection, schedule: Q04DX003 (ip), vehicle: Klucel (hydroxypropylcellulose) (HPC)
# [4] = endpoint: mean survival time, dose: 400.0 mg/kg/injection, schedule: Q04DX003 (ip), vehicle: Klucel (hydroxypropylcellulose) (HPC)
smiles,measurement,setting,value
N/C(=N\O)c1cn(C2OC(CO)C(O)C2O)c2ncnc(N)c12 (stereo not drawn),T/C,"endpoint: mean survival time, dose: 0.2 mg/kg/injection, schedule: Q01DX015 (ip), vehicle: carboxymethylcellulose (CMC)",104 % of control
same,T/C,"endpoint: mean survival time, dose: 0.25 mg/kg/injection, schedule: Q01DX009 (ip), vehicle: saline",117 % of control
same,T/C,"endpoint: mean survival time, dose: 0.25 mg/kg/injection, schedule: Q03HX024 (ip), vehicle: saline",123 % of control
same,T/C,"endpoint: mean survival time, dose: 0.3 mg/kg/injection, schedule: Q01DX015 (ip), vehicle: carboxymethylcellulose (CMC)",117 % of control
same,T/C,"endpoint: mean survival time, dose: 0.39 mg/kg/injection, schedule: Q01DX009 (ip), vehicle: saline",150 % of control
same,T/C,"endpoint: mean survival time, dose: 0.44 mg/kg/injection, schedule: Q01DX015 (ip), vehicle: carboxymethylcellulose (CMC)",117 % of control
same,T/C,"endpoint: mean survival time, dose: 0.5 mg/kg/injection, schedule: Q01DX005 (ip), vehicle: saline",118 % of control
same,T/C,"endpoint: mean survival time, dose: 0.67 mg/kg/injection, schedule: Q01DX015 (ip), vehicle: carboxymethylcellulose (CMC)",120 % of control
same,T/C,"endpoint: mean survival time, dose: 0.78 mg/kg/injection, schedule: Q01DX005 (ip), vehicle: saline",111 % of control
same,T/C,"endpoint: mean survival time, dose: 0.78 mg/kg/injection, schedule: Q01DX009 (ip), vehicle: saline",150 % of control
same,T/C,"endpoint: mean survival time, dose: 1.0 mg/kg/injection, schedule: Q03HX008 (ip), vehicle: saline",160 % of control
same,T/C,"endpoint: mean survival time, dose: 1.0 mg/kg/injection, schedule: Q03HX024 (ip), vehicle: saline",192 % of control
same,T/C,"endpoint: mean survival time, dose: 1.3 mg/kg/injection, schedule: Q01DX009 (ip), vehicle: saline",159 % of control
same,T/C,"endpoint: mean survival time, dose: 1.56 mg/kg/injection, schedule: Q01DX005 (ip), vehicle: saline",110 % of control
same,T/C,"endpoint: mean survival time, dose: 1.56 mg/kg/injection, schedule: Q01DX009 (ip), vehicle: saline",204 % of control
same,T/C,"endpoint: mean survival time, dose: 2.0 mg/kg/injection, schedule: Q01DX009 (ip), vehicle: saline",158 % of control
same,T/C,"endpoint: mean survival time, dose: 2.0 mg/kg/injection, schedule: Q03HX024 (ip), vehicle: saline",102 % of control and 107 % of control
same,T/C,"endpoint: mean survival time, dose: 3.0 mg/kg/injection, schedule: Q01DX009 (ip), vehicle: saline",151 % of control
same,T/C,"endpoint: mean survival time, dose: 3.12 mg/kg/injection, schedule: Q01DX001 (ip), vehicle: other",121 % of control
same,T/C,"endpoint: mean survival time, dose: 3.12 mg/kg/injection, schedule: Q01DX005 (ip), vehicle: saline",156 % of control
same,T/C,"endpoint: mean survival time, dose: 3.12 mg/kg/injection, schedule: Q01DX009 (ip), vehicle: saline",109 % of control
same,T/C,"endpoint: mean survival time, dose: 3.13 mg/kg/injection, schedule: Q01DX001 (ip), vehicle: water",121 % of control
same,T/C,"endpoint: mean survival time, dose: 4.0 mg/kg/injection, schedule: Q01DX001 (ip), vehicle: saline",117 % of control
same,T/C,"endpoint: mean survival time, dose: 4.0 mg/kg/injection, schedule: Q01DX005 (ip), vehicle: saline",152 % of control
same,T/C,"endpoint: mean survival time, dose: 4.0 mg/kg/injection, schedule: Q01DX009 (ip), vehicle: saline",153 % of control and 180 % of control
same,T/C,"endpoint: mean survival time, dose: 4.0 mg/kg/injection, schedule: Q01DX009 (oral), vehicle: saline",96 % of control
same,T/C,"endpoint: mean survival time, dose: 4.0 mg/kg/injection, schedule: Q08DX002 (ip), vehicle: saline",122 % of control
same,T/C,"endpoint: mean survival time, dose: 4.4 mg/kg/injection, schedule: Q01DX001 (ip), vehicle: carboxymethylcellulose (CMC)",124 % of control
same,T/C,"endpoint: mean survival time, dose: 5.0 mg/kg/injection, schedule: Q01DX001 (ip), vehicle: carboxymethylcellulose (CMC)",124 % of control
same,T/C,"endpoint: mean survival time, dose: 5.0 mg/kg/injection, schedule: Q01DX009 (ip), vehicle: saline",158 % of control
same,T/C,"endpoint: mean survival time, dose: 5.0 mg/kg/injection, schedule: Q01DX015 (ip), vehicle: carboxymethylcellulose (CMC)",108 % of control
same,T/C,"endpoint: mean survival time, dose: 6.25 mg/kg/injection, schedule: Q01DX001 (ip), vehicle: other",122 % of control
same,T/C,"endpoint: mean survival time, dose: 6.25 mg/kg/injection, schedule: Q01DX001 (ip), vehicle: water",114 % of control
same,T/C,"endpoint: mean survival time, dose: 6.25 mg/kg/injection, schedule: Q01DX009 (ip), vehicle: saline",113 % of control
same,T/C,"endpoint: mean survival time, dose: 8.0 mg/kg/injection, schedule: Q01DX001 (ip), vehicle: saline",124 % of control
same,T/C,"endpoint: mean survival time, dose: 8.0 mg/kg/injection, schedule: Q01DX005 (ip), vehicle: saline",150 % of control
same,T/C,"endpoint: mean survival time, dose: 8.0 mg/kg/injection, schedule: Q01DX009 (ip), vehicle: saline",119 % of control and 121 % of control
same,T/C,"endpoint: mean survival time, dose: 8.0 mg/kg/injection, schedule: Q01DX009 (oral), vehicle: saline",95 % of control
same,T/C,"endpoint: mean survival time, dose: 8.0 mg/kg/injection, schedule: Q04DX003 (ip), vehicle: saline",151 % of control and 156 % of control
same,T/C,"endpoint: mean survival time, dose: 16.0 mg/kg/injection, schedule: Q01DX001 (ip), vehicle: saline",119 % of control
same,T/C,"endpoint: mean survival time, dose: 16.0 mg/kg/injection, schedule: Q01DX001 (oral), vehicle: saline",94 % of control
same,T/C,"endpoint: mean survival time, dose: 16.0 mg/kg/injection, schedule: Q01DX009 (oral), vehicle: saline",95 % of control
same,T/C,"endpoint: mean survival time, dose: 16.0 mg/kg/injection, schedule: Q04DX003 (ip), vehicle: saline",186 % of control
same,T/C,"endpoint: mean survival time, dose: 22.5 mg/kg/injection, schedule: Q01DX001 (ip), vehicle: saline",151 % of control
same,T/C,"endpoint: mean survival time, dose: 25.0 mg/kg/injection, schedule: Q01DX001 (ip), vehicle: other",157 % of control
same,T/C,"endpoint: mean survival time, dose: 25.0 mg/kg/injection, schedule: Q01DX001 (ip), vehicle: water",152 % of control
same,T/C,"endpoint: mean survival time, dose: 32.0 mg/kg/injection, schedule: Q01DX001 (oral), vehicle: saline",97 % of control
same,T/C,"endpoint: mean survival time, dose: 32.0 mg/kg/injection, schedule: Q01DX009 (oral), vehicle: saline",94 % of control
same,T/C,"endpoint: mean survival time, dose: 32.0 mg/kg/injection, schedule: Q08DX002 (ip), vehicle: saline",154 % of control
same,T/C,"endpoint: mean survival time, dose: 50.0 mg/kg/injection, schedule: Q01DX001 (ip), vehicle: other",150 % of control
same,T/C,"endpoint: mean survival time, dose: 50.0 mg/kg/injection, schedule: Q01DX001 (ip), vehicle: water",159 % of control
same,T/C,"endpoint: mean survival time, dose: 64.0 mg/kg/injection, schedule: Q01DX001 (oral), vehicle: saline",94 % of control
same,T/C,"endpoint: mean survival time, dose: 128.0 mg/kg/injection, schedule: Q01DX001 (oral), vehicle: saline",90 % of control
same,T/C,"endpoint: median survival time, dose: 0.5 mg/kg/injection, schedule: Q01DX009 (ip), vehicle: saline",118 % of control and 122 % of control
same,T/C,"endpoint: median survival time, dose: 1.0 mg/kg/injection, schedule: Q01DX009 (ip), vehicle: saline",122 % of control
Nc1ccccc1CCc1ccccc1N,T/C,"endpoint: mean survival time, dose: 100.0 mg/kg/injection, schedule: Q01DX009 (ip), vehicle: saline with Tween-80",98 % of control
same,T/C,"endpoint: mean survival time, dose: 200.0 mg/kg/injection, schedule: Q01DX009 (ip), vehicle: saline with Tween-80",98 % of control
same,T/C,"endpoint: mean survival time, dose: 400.0 mg/kg/injection, schedule: Q01DX009 (ip), vehicle: saline with Tween-80",94 % of control
CC#CC(C)=O,T/C,"endpoint: mean survival time, dose: 25.0 mg/kg/injection, schedule: Q04DX003 (ip), vehicle: saline",100 % of control
same,T/C,"endpoint: mean survival time, dose: 50.0 mg/kg/injection, schedule: Q04DX003 (ip), vehicle: saline",92 % of control
same,T/C,[1],100 % of control
CC1(C)/C(=C\S(=O)(=O)O)C2CCC1C2 (stereo not drawn),T/C,"endpoint: mean survival time, dose: 100.0 mg/kg/injection, schedule: Q01DX001 (ip), vehicle: saline",105 % of control
same,T/C,[1],110 % of control
same,T/C,"endpoint: mean survival time, dose: 200.0 mg/kg/injection, schedule: Q01DX001 (ip), vehicle: saline",105 % of control
same,T/C,"endpoint: mean survival time, dose: 200.0 mg/kg/injection, schedule: Q04DX003 (ip), vehicle: saline",98 % of control
same,T/C,"endpoint: mean survival time, dose: 400.0 mg/kg/injection, schedule: Q01DX001 (ip), vehicle: saline",103 % of control
same,T/C,"endpoint: mean survival time, dose: 400.0 mg/kg/injection, schedule: Q04DX003 (ip), vehicle: saline",101 % of control
C(=NCCCN1CCN(CCCN=Cc2ccc3c(c2)OCO3)CC1)c1ccc2c(c1)OCO2,T/C,"endpoint: mean survival time, dose: 25.0 mg/kg/injection, schedule: Q01DX Z (ip), vehicle: carboxymethylcellulose (CMC)",103 % of control
same,T/C,"endpoint: mean survival time, dose: 50.0 mg/kg/injection, schedule: Q01DX Z (ip), vehicle: carboxymethylcellulose (CMC)",109 % of control
same,T/C,"endpoint: mean survival time, dose: 100.0 mg/kg/injection, schedule: Q01DX Z (ip), vehicle: carboxymethylcellulose (CMC)",100 % of control
same,T/C,"endpoint: mean survival time, dose: 200.0 mg/kg/injection, schedule: Q01DX Z (ip), vehicle: carboxymethylcellulose (CMC)",97 % of control
Cc1ccc(Oc2cccc(C(=O)O)c2)cc1,T/C,[2],107 % of control
same,T/C,[3],96 % of control
same,T/C,[4],118 % of control
CC(=O)c1ccc(OCC(O)CN2CCN(c3ccccc3)CC2)c(C)c1 (stereo not drawn),T/C,"endpoint: mean survival time, dose: 100.0 mg/kg/injection, schedule: Q04DX003 (ip), vehicle: saline with Tween-80",108 % of control
same,T/C,"endpoint: mean survival time, dose: 200.0 mg/kg/injection, schedule: Q04DX003 (ip), vehicle: saline with Tween-80",108 % of control
same,T/C,"endpoint: mean survival time, dose: 400.0 mg/kg/injection, schedule: Q04DX003 (ip), vehicle: saline with Tween-80",101 % of control
O=C1C=C(OCc2ccccc2)C(=O)C(OCc2ccccc2)=C1,T/C,[2],93 % of control
same,T/C,[3],96 % of control
same,T/C,[4],95 % of control
Cc1ccc(-n2c(=O)c(N=Nc3ccc(Cl)cc3)c(O)n(-c3ccccc3Cl)c2=S)cc1,T/C,"endpoint: mean survival time, dose: 25.0 mg/kg/injection, schedule: Q01DX001 (ip), vehicle: Klucel (hydroxypropylcellulose) (HPC)",97 % of control
same,T/C,"endpoint: mean survival time, dose: 50.0 mg/kg/injection, schedule: Q01DX001 (ip), vehicle: Klucel (hydroxypropylcellulose) (HPC)",101 % of control
same,T/C,"endpoint: mean survival time, dose: 100.0 mg/kg/injection, schedule: Q01DX001 (ip), vehicle: Klucel (hydroxypropylcellulose) (HPC)",92 % of control
